Test results reported in patent publication US20260140098A1, “METHOD FOR TREATING PLASMA SAMPLE CONTAINING (7aS,2'S)-2-OXO-CLOPIDOGREL AND METHOD FOR DETERMINING THE SAME” (CHENGDU SHIBEIKANG BIOMEDICAL TECHNOLOGY CO., LTD., priority 2021, published 2026).
“And” between values parts separate entries of the source, which are not always exact repeats. Equal values may be shown once. Read-outs that look alike come from different tables or passages of the source.

Tests used:
[1] = Stability of (7aS,2′S)-2-oxo-clopidogrel in plasma at −80° C., screening of reducing agent type (Example 5); type: in vitro ADME; details: for recovery at 0 day, 0.1 ng/mL / recovery at 10 day, 0.1 ng/mL / recovery at 30 day, 0.1 ng/mL / recovery at 60 day, 0.1 ng/mL: theoretical 0.1 ng/mL; for recovery at 0 day, 0.1 ng/mL / recovery at 0 day, 12 ng/mL: day 0, read-out: Recovery rate; for recovery at 10 day, 0.1 ng/mL / recovery at 10 day, 12 ng/mL: day 10, read-out: Recovery rate; for recovery at 30 day, 0.1 ng/mL / recovery at 30 day, 12 ng/mL: day 30, read-out: Recovery rate; for recovery at 60 day, 0.1 ng/mL / recovery at 60 day, 12 ng/mL: day 60, read-out: Recovery rate; for recovery at 0 day, 12 ng/mL / recovery at 10 day, 12 ng/mL / recovery at 30 day, 12 ng/mL / recovery at 60 day, 12 ng/mL: theoretical 12.0 ng/mL
Experimental: (§1) S2. Plasma sample pre-treatment: taking 100 μl of the plasma, adding 5 μl of an internal standard working solution and 300 μl of acetonitrile respectively; after vortex mixing, centrifuging at 2-8° C. and 10,000 r/min for 10 min, and collecting the supernatant for later use.
(§2) S3. LC-MS/MS analysis: injecting 10 μl of the supernatant prepared from step S2 for determination, where the liquid chromatography conditions are: • the chromatographic column is Kinetex® 1.7 μm C18 100 A 100×2.1 mm; the column temperature is 40° C.; the mobile phase is acetonitrile-0.2% aqueous formic acid solution with a flow rate of 0.2 ml/min; and a gradient elution is carried out as specified in the table below:
(§3) ESI ion source, positive ion detection in multiple reaction monitoring mode (MRM); the quantitatively analyzed ions (7aS,2′S)-2-oxo-clopidogrel: m/z 338.100→155.000, IS: m/z 341.100→158.000, a capillary voltage of 4.0 KV, a cone voltage of 25 V, a desolvation gas temperature of 400° C. and a source temperature of 150° C. The optimal collision energy is 20 eV.
Blank plasma was taken and different antioxidants (DTT, TCEP, ME) were added to prepare plasma containing an antioxidant at a concentration of 100 mg/ml. Subsequently, standard series solution of (7aS,2′S)-2-oxo-clopidogrel was added separately to prepare quality control samples with two concentrations of (7aS,2′S)-2-oxo-clopidogrel (0.1 and 12.0 ng/ml), 3 samples for each concentration. They were placed in a refrigerator at −80° C., and the plasma samples at different placing time points were taken to examine the stability by pre-treating the plasma samples according to the method of S2 of Example 1, followed by LC/MS/MS determination according to the method of S3.

[2] = Stability of (7aS,2′S)-2-oxo-clopidogrel in plasma containing the reducing agent (Example 8); type: in vitro ADME, human; details: plasma with reducing agent; for Measured concentration: single replicates
Experimental: S1. Whole blood treatment: taking 3 ml of human whole blood anticoagulated with EDTA-K2 after oral administration of (7aS,2′S)-2-oxo-clopidogrel, cooling to 4° C. on ice, then adding thereto 60 μl of tris(2-carboxyethyl) phosphine at 100 mg/ml; shaking well and then centrifuging (2-8° C., 3000 rpm for 10 min), and collecting plasma for later use.
as §1, §2, §3
Blank plasma was taken and operated according to S1 of Example 1 to obtain a blank plasma containing the reducing agent. Subsequently, a standard series solution of (7aS,2′S)-2-oxo-clopidogrel was added to prepare quality control samples containing (7aS,2′S)-2-oxo-clopidogrel at concentrations of 0.1 and 12 ng/ml. The plasma samples were examined for stability after ice box short-term placement, stability after room temperature short-term placement, stability after freeze-thaw cycle and stability after long-term cryopreservation.
The plasma samples at different placing time points were taken to examine the stability by pre-treating the plasma samples according to the method of S2 of Example 1, followed by LC/MS/MS determination according to the method of S3.

[3] = blank plasma containing DTT 100 mg/ml, DTT 100 mg/ml
[4] = blank plasma containing ME 100 mg/ml, ME 100 mg/ml
[5] = blank plasma containing TCEP 100 mg/ml, TCEP 100 mg/ml
[6] = placing at room temperature for 1 h, theoretical 0.1 ng/mL
[7] = placing at room temperature for 1 h, theoretical 12.0 ng/mL
[8] = placing below −60° C. for 36 days, theoretical 0.1 ng/mL
[9] = placing in ice box for 4 h, theoretical 12.0 ng/mL
[10] = three cycles of freeze-thaw, theoretical 0.1 ng/mL
[11] = three cycles of freeze-thaw, theoretical 12.0 ng/mL

COC(=O)[C@H](c1ccccc1Cl)N1CC[C@@H]2SC(=O)C=C2C1 [(7aS,2′S)-2-oxo-clopidogrel, methyl(S)-2-(2-chlorophenyl)-2-((S)-2-oxo-2,6,7,7a-tetrahydrothieno[3,2-c]pyridin-5 (4H)-yl)acetate]
recovery at 0 day, 0.1 ng/mL [1, 3]: 102%
recovery at 10 day, 0.1 ng/mL [1, 3]: 103%
recovery at 30 day, 0.1 ng/mL [1, 3]: 95.5%
recovery at 0 day, 0.1 ng/mL [1, 4]: 102%
recovery at 10 day, 0.1 ng/mL [1, 4]: 101%
recovery at 30 day, 0.1 ng/mL [1, 4]: 91.5%
recovery at 60 day, 0.1 ng/mL [1, 4]: 86.6%
recovery at 0 day, 12 ng/mL [1, 4]: 101%
recovery at 10 day, 12 ng/mL [1, 4]: 99.2%
recovery at 30 day, 12 ng/mL [1, 4]: 96.5%
recovery at 60 day, 12 ng/mL [1, 4]: 87.9%
recovery at 60 day, 0.1 ng/mL [1, 5]: 101%
recovery at 0 day, 12 ng/mL [1, 5]: 101%
recovery at 10 day, 12 ng/mL [1, 5]: 100%
recovery at 30 day, 12 ng/mL [1, 5]: 102%
recovery at 60 day, 12 ng/mL [1, 5]: 101%
recovery at 60 day, 0.1 ng/mL ([1]; plasma, DTT 100 mg/ml): 89.9%
recovery at 0 day, 12 ng/mL ([1]; plasma, DTT 100 mg/ml): 101%
recovery at 10 day, 12 ng/mL ([1]; plasma, DTT 100 mg/ml): 100%
recovery at 30 day, 12 ng/mL ([1]; plasma, DTT 100 mg/ml): 98.9%
recovery at 60 day, 12 ng/mL ([1]; plasma, DTT 100 mg/ml): 92.4%
recovery at 0 day, 0.1 ng/mL ([1]; plasma, TCEP 100 mg/ml): 102%
recovery at 10 day, 0.1 ng/mL ([1]; plasma, TCEP 100 mg/ml): 105%
recovery at 30 day, 0.1 ng/mL ([1]; plasma, TCEP 100 mg/ml): 99.3%
Stability of plasma samples (in words) ([1]; with TCEP compared with DTT and ME, 100 mg/ml): better than that of the plasma samples with DTT and ME
recovery at 1 h, 0.1 ng/mL ([2]; human, plasma containing the reducing agent (TCEP), placing at room temperature for 1 h, theoretical 0.1 ng/mL, read-out: Recovery rate): 102%
recovery at 1 h, 12 ng/mL ([2]; human, plasma containing the reducing agent (TCEP), placing at room temperature for 1 h, theoretical 12.0 ng/mL, read-out: Recovery rate): 99.4%
recovery at 36 days, 0.1 ng/mL ([2]; human, plasma containing the reducing agent (TCEP), placing below −60° C. for 36 days, theoretical 0.1 ng/mL, read-out: Recovery rate): 96.4%
recovery at 36 days, 12 ng/mL ([2]; human, plasma containing the reducing agent (TCEP), placing below −60° C. for 36 days, theoretical 12.0 ng/mL, read-out: Recovery rate): 97.7%
recovery at 4 h, 0.1 ng/mL ([2]; human, plasma containing the reducing agent (TCEP), placing in ice box for 4 h, theoretical 0.1 ng/mL, read-out: Recovery rate): 100%
recovery at 4 h, 12 ng/mL ([2]; human, plasma containing the reducing agent (TCEP), placing in ice box for 4 h, theoretical 12.0 ng/mL, read-out: Recovery rate): 98.5%
recovery at 0.1 ng/mL ([2]; human, plasma containing the reducing agent (TCEP), three cycles of freeze-thaw, theoretical 0.1 ng/mL, read-out: Recovery rate): 100%
recovery at 12 ng/mL ([2]; human, plasma containing the reducing agent (TCEP), three cycles of freeze-thaw, theoretical 12.0 ng/mL, read-out: Recovery rate): 99.3%
Average measured concentration [2, 6]: 0.1021 ng/mL
Measured concentration [2, 6]: 0.1013 ng/mL and 0.1027 ng/mL and 0.1020 ng/mL and 0.1040 ng/mL and 0.1007 ng/mL
Average measured concentration [2, 7]: 11.9269 ng/mL
Measured concentration [2, 7]: 11.8349 ng/mL and 11.7245 ng/mL and 11.8592 ng/mL and 12.1616 ng/mL and 12.0541 ng/mL
Average measured concentration [2, 8]: 0.0964 ng/mL
Measured concentration [2, 8]: 0.0980 ng/mL and 0.0940 ng/mL
Measured concentration ([2]; placing in ice box for 4 h, theoretical 0.1 ng/mL): 0.1013 ng/mL (2×) and 0.0960 ng/mL
Average measured concentration [2, 9]: 11.8184 ng/mL
Measured concentration [2, 9]: 12.0320 ng/mL and 11.7632 ng/mL and 11.6883 ng/mL and 11.8822 ng/mL and 11.7261 ng/mL
Average measured concentration [2, 10]: 0.1003 ng/mL
Measured concentration [2, 10]: 0.1007 ng/mL (2×) and 0.1013 ng/mL (2×) and 0.0973 ng/mL
Average measured concentration [2, 11]: 11.9191 ng/mL
Measured concentration [2, 11]: 11.9123 ng/mL and 11.8416 ng/mL and 11.9078 ng/mL and 11.8995 ng/mL and 12.0342 ng/mL
